Results reported in PMC4253628, “Antiviral effects against EV71 of pimprinine and its derivatives isolated from Streptomyces sp” (Virology Journal, 2014).

Experiments:
[1] = Cytotoxicity, MTT method, uninfected RD cells; type: cell-based; conditions: human
Experimental: (§1) The 50% cell cytotoxic concentrations (CC50s) of compounds were calculated using SPSS software. SI were calculated from the ratio of CC50: EC50.

EV71 [2] = assay: Progeny virus yield reduction, EV71 in RD cells; type: cell-based, Enterovirus 71; conditions: for EC90: Enterovirus A, EV71, RD cells, progeny viral yield, read-out: EC90, compound concentration required to achieve 90% virus yield reduction
[3] = Cytotoxicity, MTT method, Hep-2 cells; type: cell-based; conditions: human
Experimental: as §1

[4] = Cytotoxicity, MTT method, HeLa cells; type: cell-based; conditions: human
Experimental: as §1

CVB3 [5] = assay: Virus yield reduction assay, CVB3; type: cell-based, Coxsackievirus B3; conditions: Enterovirus B, CVB3; Hep-2 cells; — = less than 90% inhibition; read-out: EC90 CVB3, concentration required to inhibit 90% virus yield
ADV-7 [6] = assay: Virus yield reduction assay, ADV-7; type: cell-based, adenovirus 7; conditions: Human mastadenovirus B; HeLa cells; read-out: EC90 ADV-7, concentration required to inhibit 90% virus yield
EV71 [7] = assay: Adsorption analysis, EV71 on RD cells; type: cell-based, Enterovirus 71; conditions: 160 μM pimprinethine, 80 μM WS-30581 A, 80 μM WS-30581 B; EV71 10^4 TCID50; 2 h adsorption
EV71 [8] = conditions: EV71, RD cells
Experimental: (§2) Cell viability was assessed by an MTT assay, which functions based on the reduction of a MTT into formazan dye by active mitochondria. The cells were treated with 100 μL of MTT (1 mg/mL, Sigma) and incubated at 37°C for 4 h. The reaction was blocked by DMSO and measured in a microplate reader (Bio-Tek Instruments) at 492 nm. The untreated control was arbitrarily set as 100%.
(§3) Confluent cell monolayers in 96-well dishes were infected with 100 TCID50 of corresponding virus dilution mixed with serial dilutions of tested compounds for 1 h at 37°C. Inocula were aspirated and the cells were then incubated with various concentrations of DMEM/tested compounds at 37°C, 5% CO2 for 48 h. CPE were observed microscopically and the viability of the cells was determined using MTT assays. […] The concentrations required for the tested compounds to achieve 50% protection of cells from virus-induced CPE were determined.

EV71 [9] = assay: microbe, parasite or virus in culture; conditions: Enterovirus A, EV71, RD, 48 h, read-out: EC50, compound concentration required to achieve 50% protection from virus-induced cytopathogenicity
Experimental: as §2, §3

CVB3 [10] = assay: Inhibition of CVB3-induced CPE in Hep-2 cells; conditions: for EC50: Enterovirus B, CVB3, HEp-2, 48 h, read-out: EC50 CVB3; for SI CVB3, ratio CC50/EC50: Hep-2 cells
Experimental: as §2, §3

ADV-7 [11] = assay: Inhibition of ADV-7-induced CPE in HeLa cells; conditions: for SI ADV-7, ratio CC50/EC50: HeLa cells; for EC50: Human mastadenovirus B, HeLa, 48 h, read-out: EC50 ADV-7
Experimental: as §2, §3

[12] = Cytotoxicity, MTT method, MDCK cells; type: cell-based, canine; conditions: dog, uninfected MDCK cells, host cells of H1N1: MDCK
Experimental: as §1

H1N1 [13] = assay: Inhibition of H1N1-induced CPE in MDCK cells; type: cell-based, influenza virus A/human/Hubei/86/2009 (H1N1); conditions: MDCK cells; for EC50: Influenza A virus, H1N1, 100 TCID50, 48 h, CPE, — = less than 50% inhibition, read-out: EC50 H1N1
H1N1 [14] = assay: Virus yield reduction assay, H1N1; type: cell-based, influenza virus A/human/Hubei/86/2009 (H1N1); conditions: MDCK cells, — = less than 90% inhibition
Experimental: Virus yield reduction assays were also carried out to evaluate further the protective effects of the tested compounds.
The virus suspension, serially diluted 10-fold with DMEM containing 2% FBS, was inoculated to cells in a 96-well plate. After 1 h incubation at 37°C in 5% CO2, unbinding virus was washed out and DMEM maintenance medium supplemented with 2% FBS was added to the cells. After 2 days, the infected cells were monitored for cytopathic effects (CPEs). The virus titer was calculated by the Reed–Muench method.

HSV-1 [15] = assay: Virus yield reduction assay, HSV-1; type: cell-based, herpes simplex virus 1; conditions: Hep-2 cells, — = less than 90% inhibition
[16] = Cytotoxicity, ATPLite luminescence-based assay, RD cells; type: cell-based; conditions: human
Excerpt: The ATPLite assay may be more sensitive to cytotoxicity than the MTT method. For RD and Hep-2 cells, similar results were obtained, and for HeLa and MDCK cells, the values of CC50 from the ATPLite assay were smaller than those from MTT assays (Tables 1, 2 and 3).

EV71 [17] = assay: Dependence of anti-EV71 activity on virus inoculum (cell viability, MTT) in RD cells; type: cell-based, Enterovirus 71; conditions: virus concentration above 10^4 TCID50
EV71 [18] = assay: Virucidal activity against EV71; type: cell-based, Enterovirus 71; conditions: 80 μM pimprinethine, 40 μM WS-30581 A or 40 μM WS-30581 B; 24 h at 4°C; 10^3 TCID50
EV71 [19] = assay: Effective stage analysis, EV71 in RD cells; type: cell-based, Enterovirus 71; conditions: 48 h
EV71 [20] = assay: Release analysis, EV71 from RD cells; type: cell-based, Enterovirus 71; conditions: 80 μM pimprinethine, 40 μM WS-30581 A or B; 12 h p.i.
HSV-1 [21] = assay: Plaque reduction assay, HSV-1 in Hep-2 cells; conditions: for EC50: Human alphaherpesvirus 1, HEp-2, read-out: EC50 HSV-1
Experimental: Confluent monolayers of Hep-2 cells, seeded in a 24-well plate, were infected with HSV-1 at a density of 60–80 plaque-forming units (PFU) per well and treated with media (pre-warmed DMEM containing 2% FBS, 0.8% low-melting agarose) mixed with or without the serially diluted tested compounds for the periods indicated following different procedures. The cells were incubated at 37°C until plaques appeared, followed by fixing with 10% formaldehyde and staining with 0.5% crystal violet. The plaques were counted by visual examination. The ratio of the number of plaques in the treated group to that in the untreated control was calculated.
A plaque reduction assay was performed to measure the inhibitory effects of the test compounds against HSV-1 infection.

Row | SMILES | EC90 (EV71 [2]) | CC50 at 48 h [3] | EC90 (CVB3 [5]) | EC90 (ADV-7 [6]) | virus titer during virus attachment (adsorption) (EV71 [7]) | SI (selectivity index), ratio CC50/EC50 (EV71 [8]) | EC50 (EV71 [9]) | EC50 (CVB3 [10]) | SI CVB3, ratio CC50/EC50 (CVB3 [10]) | SI ADV-7, ratio CC50/EC50 (ADV-7 [11]) | EC50 (ADV-7 [11]) | CC50 at 48 h [12] | EC50 (H1N1 [13]) | SI H1N1, ratio CC50/EC50 (H1N1 [13]) | SI HSV-1, ratio CC50/EC50 (HSV-1 [21]; Hep-2 cells) | EC50 (HSV-1 [21]) | also measured
1 | NC(=O)c1ncn([C@@H]2O[C@H](CO)[C@@H](O)[C@H]2O)n1 [Ribavirin, reference compound] | 136 ± 49 µM | 1.31 ± 0.385 mM | 103 ± 17 µM | 132 ± 22 µM | no significant decrease | 12 | 102 ± 68 µM | 90 ± 10 µM | 15 | 13 | 116 ± 19 µM | – | – | – | – | – | CC50 at 48 h [1]: 1230 ± 355 µM; reduction in progeny virus titers (EV71 [2]; 160 μM, 100 TCID50 EV71, RD cells, 10 h): ~2.0 log; CC50 at 48 h [4]: 1520 ± 243 µM
2 | NC12CC3CC(CC(C3)C1)C2 [Amantadine, reference compound] | – | – | – | – | – | – | – | – | – | – | – | > 2000 µM | 73 ± 8 µM | >27 | – | – | EC90 (H1N1 [14]; Influenza A virus, H1N1, read-out: EC90 H1N1, concentration required to inhibit 90% virus yield): 90 ± 12 µM
3 | CCCCc1ncc(-c2c[nH]c3ccccc23)o1 [WS-30581 B] | 18 ± 2 µM | – | 42 ± 6 µM | 48 ± 6 µM | no significant decrease | 21 | 11 ± 3 µM | 12 ± 2 µM | 7 | 24 | 15 ± 2 µM | 215 ± 28 µM | 24 ± 5 µM | 9 | 6 | 14 ± 4 µM | CC50 at 48 h ([1]; RD cells, MTT, 48 h, mean ± SD of three experiments, read-out: CC50, compound concentration required to reduce cell viability by 50%): 229 ± 10 µM; reduction in progeny virus titers relative to virus control (EV71 [2]; 80 μM, 100 TCID50 EV71, RD cells, 10 h): 3.0 log; CC50 at 48 h ([3]; uninfected Hep-2 cells, host cells of CVB3: Hep-2, MTT, 48 h, read-out: CC50 (CVB3)): 0.083 ± 0.006 mM; CC50 at 48 h ([4]; uninfected HeLa cells, host cells of ADV-7: HeLa, MTT, 48 h, read-out: CC50 (ADV-7)): 354 ± 14 µM; inhibition of H1N1 infection (H1N1 [13]): less than 70%; EC90 HSV-1, concentration required to inhibit 90% virus yield (HSV-1 [15]): — (—, less than 50% or 90% inhibition); EC90 H1N1, concentration required to inhibit 90% virus yield (H1N1 [14]): — (—, less than 50% or 90% inhibition); CC50 [16]: 267 ± 31 µM; anti-EV71 inhibition at excessive virus inoculum (EV71 [17]): Inhibition was eliminated; virus titers of EV71 mixture with vs without compound (virucidal activity) (EV71 [18]): No significant difference; virus titer reduction vs untreated cells (EV71 [19]; 80 μM, added post infection, EV71 100 TCID50): approximately 5.0 log; viability at 80 µM (EV71 [19]; Enterovirus A, RD, added post infection (therapeutic), EV71 100 TCID50, read-out: viability rates of the infected cells): ~100%; release of EV71 from RD cells (EV71 [20]): unaffected; inhibition of HSV-1-induced plaque formation (HSV-1 [21]; inhibition achievable, Hep-2 cells): approximately 80%
4 | Nc1nc2c(ncn2COCCO)c(=O)[nH]1 [Acyclovir, reference compound] | – | > 2 mM | – | – | – | – | – | – | – | – | – | – | – | – | >181 | 11 ± 1 µM | EC90 (HSV-1 [15]; Human alphaherpesvirus 1, read-out: EC90 HSV-1, concentration required to inhibit 90% virus yield): 24 ± 5 µM
